Series [1] deals with T1, hERG potassium channels (KCNH2 gene, expressed in CHO cells) (Homo sapiens, UniProt Q12809).
T1 construct: expressed in transfected cells; host or cells: CHO cells
Briefly: Ability to block hERG potassium channel (electrophysiology, IonWorks Quattro). It counts as cell-based. As to conditions: cloned hERG in CHO cells; test pulse +40 mV; concentration not given. The protocol: Ability to Block hERG Potassium Channel Ability to block hERG potassium channels was determined using the electrophysiological method and cloned hERG potassium channels (KCNH2 gene, expressed in CHO cells) as biological material. The effects were evaluated using IonWorks™ Quattro system (MDS-AT).
hERG current was elicited using a pulse pattern with fixed amplitudes (conditioning pre-pulse: −80 mV for 25 ms; test pulse: +40 mV for 80 ms) from a holding potential of 0 mV. hERG current was measured as a difference between the peak current at 1 ms after the test step to +40 mV and the steady-state current at the end of the step to +40 mV.
Data acquisition and analyses were performed using the lonWorks Quattro™ system operation software (version 2.0.2; Molecular Devices Corporation, Union City, Calif.). Data were corrected for leak current.
The hERG block was calculated as: % Block=(1−I TA/IControl)×100%, where IControl and ITA were the currents elicited by the test pulse in control and in the presence of a test compound, respectively.
(Block of hERG is tested as a sign of cardiac risk.)

Another series deals with Male CD-1 mice. Briefly: d-Amphetamine-induced locomotor hyperactivity in mice. The series is classed as in vivo. The following applies: compound i.p., d-amphetamine s.c., immediately before the test, ambulation counted during 2 h. On the procedure:
Potential antipsychotic activity was tested for the representative compound 60 in mouse model of psychosis, involving the induction of locomotor hyperactivity by administering psychotomimetic substance—d-amphetamine. The ability of a test compound to remove that effect is a measure of potential antipsychotic activity.
Male CD-1 mice weighing 20-22 g derived from accredited animal facility localized at Medical College of Jagiellonian University were group-housed for 3-4 day period in polycarbonate Makrolon type 3 cages (dimensions 26.5×15×42 cm) in an environmentally controlled, experimental room (ambient temperature 22-20C; relative humidity 50-60%; 12:12 light:dark cycle, lights on at 8:00), in groups of 15. Standard laboratory food (Morigram, Agropol) and filtered water were freely available. On the day before experiments the equipment produces “white noise” was turned on for 30 minutes and mice or rats were weighted exact to 1 g. Animals were assigned randomly to treatment groups. […]
The locomotor activity was recorded with an Opto M3 multi-channel activity monitor (MultiDevice Software v.1.3, Columbus Instruments). Mice were individually placed in plastic cages (22×12×13 cm) and then the crossings of each channel (ambulation) were counted during 2 h with data recording every 5 minutes. […]

T1 sequence (Q12809 whole entry): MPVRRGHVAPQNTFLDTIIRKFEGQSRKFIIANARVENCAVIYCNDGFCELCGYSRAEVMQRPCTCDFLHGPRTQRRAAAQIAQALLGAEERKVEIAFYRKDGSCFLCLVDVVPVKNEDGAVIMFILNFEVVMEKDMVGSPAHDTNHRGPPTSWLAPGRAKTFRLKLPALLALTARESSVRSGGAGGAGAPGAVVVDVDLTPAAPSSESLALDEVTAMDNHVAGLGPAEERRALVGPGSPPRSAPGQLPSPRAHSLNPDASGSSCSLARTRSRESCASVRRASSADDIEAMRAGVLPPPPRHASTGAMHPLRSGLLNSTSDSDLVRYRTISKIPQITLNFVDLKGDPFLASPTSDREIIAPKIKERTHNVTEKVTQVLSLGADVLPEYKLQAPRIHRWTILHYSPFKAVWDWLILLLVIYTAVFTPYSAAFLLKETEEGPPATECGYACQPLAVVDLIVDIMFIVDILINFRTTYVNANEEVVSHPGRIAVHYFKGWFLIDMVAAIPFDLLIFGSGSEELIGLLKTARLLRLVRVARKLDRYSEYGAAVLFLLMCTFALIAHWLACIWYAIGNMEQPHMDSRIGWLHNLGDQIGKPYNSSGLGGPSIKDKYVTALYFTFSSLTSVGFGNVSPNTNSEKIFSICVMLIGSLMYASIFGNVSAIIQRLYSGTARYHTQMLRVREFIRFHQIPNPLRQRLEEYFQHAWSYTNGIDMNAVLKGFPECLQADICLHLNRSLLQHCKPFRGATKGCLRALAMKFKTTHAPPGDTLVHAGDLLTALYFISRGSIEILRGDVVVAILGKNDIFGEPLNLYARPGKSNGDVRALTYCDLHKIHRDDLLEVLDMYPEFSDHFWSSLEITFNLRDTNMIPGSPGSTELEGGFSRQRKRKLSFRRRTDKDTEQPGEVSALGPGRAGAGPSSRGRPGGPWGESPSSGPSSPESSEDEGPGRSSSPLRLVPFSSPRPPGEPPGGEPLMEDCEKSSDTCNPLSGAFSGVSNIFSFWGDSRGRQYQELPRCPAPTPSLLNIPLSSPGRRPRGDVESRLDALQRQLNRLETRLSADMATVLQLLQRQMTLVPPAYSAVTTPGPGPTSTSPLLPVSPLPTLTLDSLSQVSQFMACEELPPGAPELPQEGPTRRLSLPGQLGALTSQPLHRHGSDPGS

Take `CN(CCCc1noc2cc(F)ccc12)Cc1cccc(NS(=O)(=O)c2ccccc2)c1` [Compound 60, N-[3-[[3-(6-fluoro-1,2-benzoxazol-3-yl)propylmethylamino]methyl]phenyl]benzenesulphonamide]: the “hERG [%] (% Block)” value in series [1] was determined as 6%. The “MED (Minimum Effective Dose)” value in the series on Male CD-1 mice was 10 mg/kg.

(Values after patent US20150051257A1, “SULPHONAMIDE DERIVATIVES OF BENZYLAMINE FOR THE TREATMENT OF CNS DISEASES” (ADAMED SP. Z O.O, priority 2012, published 2015).)
